Experimental data: patent US20120270884A1, “Methods of Treating Aneurysmal Dilatation, Blood Vessel Wall Weakness and Specifically Abdominal Aortic and Thoracic Aneurysm Using Matrix Metalloprotease-2 Inhibitors” (SYMPHONY EVOLUTION, INC., priority 2009, published 2012)

Key:
Type in all cases: biochemical
[1] = target: T1, MMP-1 (Fibroblast collagenase) (Homo sapiens, UniProt P03956); test: In vitro metalloprotease inhibition, MMP-1
T1 sequence (P03956 100-469): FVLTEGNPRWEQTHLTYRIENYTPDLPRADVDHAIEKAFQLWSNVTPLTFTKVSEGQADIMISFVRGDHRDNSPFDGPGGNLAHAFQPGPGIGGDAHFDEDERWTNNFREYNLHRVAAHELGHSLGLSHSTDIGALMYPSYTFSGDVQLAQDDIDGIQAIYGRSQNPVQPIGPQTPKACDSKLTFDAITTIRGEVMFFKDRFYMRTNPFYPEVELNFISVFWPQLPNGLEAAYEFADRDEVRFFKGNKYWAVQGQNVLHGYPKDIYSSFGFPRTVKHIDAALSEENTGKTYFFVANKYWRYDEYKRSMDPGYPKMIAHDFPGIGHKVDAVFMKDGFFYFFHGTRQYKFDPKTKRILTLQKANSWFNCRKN
Source text: (§1) Blank cells indicate lack of data only.

MMP-3 (Stromelysin-1) = MMP-3 (Stromelysin-1) (Homo sapiens, UniProt P08254); test: In vitro metalloprotease inhibition, MMP-3
MMP-3 (Stromelysin-1), sequence (P08254 100-477, species assumed): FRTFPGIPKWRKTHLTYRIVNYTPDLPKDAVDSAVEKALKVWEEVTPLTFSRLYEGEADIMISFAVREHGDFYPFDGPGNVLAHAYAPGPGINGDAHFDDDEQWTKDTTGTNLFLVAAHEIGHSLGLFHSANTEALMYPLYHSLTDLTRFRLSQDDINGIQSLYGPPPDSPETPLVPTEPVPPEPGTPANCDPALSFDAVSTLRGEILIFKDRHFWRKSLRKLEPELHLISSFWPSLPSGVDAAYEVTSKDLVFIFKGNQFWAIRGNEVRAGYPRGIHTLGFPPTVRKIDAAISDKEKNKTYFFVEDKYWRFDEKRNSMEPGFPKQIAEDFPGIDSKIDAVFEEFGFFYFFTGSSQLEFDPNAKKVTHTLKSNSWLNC
Source text: as §1

MMP-13 (collagenase-3) = MMP-13 (collagenase-3) (Homo sapiens, UniProt P45452); test: In vitro metalloprotease inhibition, MMP-13
[2] = target: T2, MMP-2 (72 kDa gelatinase, gelatinase A) (Homo sapiens, UniProt P08253); test: In vitro metalloprotease inhibition, MMP-2
T2 sequence (P08253 110-660): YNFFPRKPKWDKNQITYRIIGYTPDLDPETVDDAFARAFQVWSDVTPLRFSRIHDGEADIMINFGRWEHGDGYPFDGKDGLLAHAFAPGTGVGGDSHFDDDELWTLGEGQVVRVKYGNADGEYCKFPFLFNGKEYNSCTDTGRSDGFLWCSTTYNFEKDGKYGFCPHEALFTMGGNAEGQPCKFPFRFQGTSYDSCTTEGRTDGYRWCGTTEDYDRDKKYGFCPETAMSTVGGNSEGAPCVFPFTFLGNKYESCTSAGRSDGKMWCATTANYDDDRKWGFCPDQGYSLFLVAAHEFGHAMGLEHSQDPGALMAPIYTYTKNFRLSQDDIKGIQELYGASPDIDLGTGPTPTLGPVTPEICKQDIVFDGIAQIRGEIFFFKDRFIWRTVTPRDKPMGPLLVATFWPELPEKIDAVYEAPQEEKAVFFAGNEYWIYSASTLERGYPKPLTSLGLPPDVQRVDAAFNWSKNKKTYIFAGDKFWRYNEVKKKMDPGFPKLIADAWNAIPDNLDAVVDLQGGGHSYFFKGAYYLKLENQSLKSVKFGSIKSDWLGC

Structure (SMILES) | IC50 [1] [nM] | IC50 (MMP-3 (Stromelysin-1)) [nM] | IC50 (MMP-13 (collagenase-3)) [nM] | IC50 [2] [nM]
O=C(NO)[C@H]1CN(C(=O)OCc2ccccc2)CCN1S(=O)(=O)c1cc(F)c(Oc2ccc(Cl)cc2)c(F)c1 [Entry 32] | 1000 to 20000 | 50 to 1000 | < 50 | < 50
COCCOC(=O)N1CCN(S(=O)(=O)c2ccc(Oc3ccc(F)cc3)cc2)[C@@H](C(=O)NO)C1 [Entry 1] | < 50 | < 50 | < 50 | < 50
O=C(NO)[C@H]1CN(C(=O)N2CCOCC2)CCN1S(=O)(=O)c1ccc(Oc2ccc(Cl)cc2)c(F)c1 [Entry 6] | 50 to 1000 | < 50 | < 50 | < 50
COCCOC(=O)N1CCN(S(=O)(=O)c2cc(F)c(Oc3ccc(F)cc3)c(F)c2)[C@@H](C(=O)NO)C1 [Entry 10] | 1000 to 20000 | 1000 to 20000 | < 50 | < 50
O=C(NO)[C@H]1CN(C(=O)N2CCOCC2)CCN1S(=O)(=O)c1cc(F)c(Oc2ccc(F)cc2)c(F)c1 [Entry 12] | 1000 to 20000 | 50 to 1000 | < 50 | < 50
O=C(NO)[C@H]1CN(C(=O)OCCN2CCCC2)CCN1S(=O)(=O)c1cc(F)c(Oc2ccc(Cl)cc2)c(F)c1 [Entry 18] | > 20000 | 50 to 1000 | < 50 | < 50
O=C(NO)[C@H]1CNCCN1S(=O)(=O)c1cc(F)c(Oc2ccc(F)cc2)c(F)c1 [Entry 11] | > 20000 | 1000 to 20000 | > 20000 | 50 to 1000
C=CCN1CCN(S(=O)(=O)c2cc(F)c(Oc3ccc(Cl)cc3)c(F)c2)[C@@H](C(=O)NO)C1 [Entry 62] | > 20000 | 1000 to 20000 | < 50 | < 50
CN1CCN(C(=O)NS(=O)(=O)N2CCN(S(=O)(=O)c3cc(F)c(Oc4ccc(Cl)cc4)c(F)c3)[C@@H](C(=O)NO)C2)CC1 [Entry 39] | 50 to 1000 | < 50 | < 50 | < 50
N#Cc1ccc(Oc2ccc(S(=O)(=O)N3CCN(C(=O)N4CCOCC4)C[C@@H]3C(=O)NO)cc2F)cc1 [Entry 7] | 50 to 1000 | < 50 | < 50 | < 50
CN(C)C(=O)CN1CCN(S(=O)(=O)c2cc(F)c(Oc3ccc(Cl)cc3)c(F)c2)[C@@H](C(=O)NO)C1 [Entry 20] | > 20000 | 1000 to 20000 | < 50 | < 50
CN(C)c1ccc2c(S(=O)(=O)N3CCN(S(=O)(=O)c4cc(F)c(Oc5ccc(Cl)cc5)c(F)c4)[C@@H](C(=O)NO)C3)cccc2c1 [Entry 49] | > 20000 | 50 to 1000 | < 50 | < 50
O=C(NO)[C@H]1CN(CC(=O)N2CCCC2)CCN1S(=O)(=O)c1cc(F)c(Oc2ccc(Cl)cc2)c(F)c1 [Entry 21] | > 20000 | 1000 to 20000 | 50 to 1000 | < 50
O=C(NO)[C@H]1CN(C(=O)CN2CCCCC2)CCN1S(=O)(=O)c1cc(F)c(Oc2ccc(Cl)cc2)c(F)c1 [Entry 26] | > 20000 | 1000 to 20000 | < 50 | < 50
CN1CCN(CC(=O)N2CCN(S(=O)(=O)c3cc(F)c(Oc4ccc(Cl)cc4)c(F)c3)[C@@H](C(=O)NO)C2)CC1 [Entry 24] | > 20000 | 1000 to 20000 | < 50 | < 50

Further lines, results first:

IC50 [1] [nM] | IC50 (MMP-3 (Stromelysin-1)) [nM] | IC50 (MMP-13 (collagenase-3)) [nM] | IC50 [2] [nM] | Structure (SMILES)
50 to 1000 | 50 to 1000 | < 50 | < 50 | O=C(NO)[C@H]1CN(C(=O)N2CCOCC2)CCN1S(=O)(=O)c1ccc(-c2cccc(F)c2)nc1 [Entry 58]
1000 to 20000 | 50 to 1000 | < 50 | < 50 | CN1CCN(CCS(=O)(=O)N2CCN(S(=O)(=O)c3cc(F)c(Oc4ccc(Cl)cc4)c(F)c3)[C@@H](C(=O)NO)C2)CC1 [Entry 55]
> 20000 | 1000 to 20000 | < 50 | < 50 | CN(C)c1cccc2c(S(=O)(=O)N3CCN(S(=O)(=O)c4cc(F)c(Oc5ccc(Cl)cc5)c(F)c4)[C@@H](C(=O)NO)C3)cccc12 [Entry 60]
> 20000 | 1000 to 20000 | 50 to 1000 | 50 to 1000 | O=C(NO)[C@H]1CN(S(=O)(=O)CCN2CCOCC2)CCN1S(=O)(=O)c1cc(F)c(Oc2ccc(Cl)cc2)c(F)c1 [Entry 57]
1000 to 20000 | 1000 to 20000 | < 50 | < 50 | O=C(NO)[C@H]1CN(C(=O)c2ccncc2)CCN1S(=O)(=O)c1cc(F)c(Oc2ccc(Cl)cc2)c(F)c1 [Entry 42]
1000 to 20000 | 50 to 1000 | < 50 | < 50 | COCCOC(=O)N1CCN(S(=O)(=O)c2cc(F)c(Oc3ccccc3)c(F)c2)[C@@H](C(=O)NO)C1 [Entry 40]
50 to 1000 | 50 to 1000 | < 50 | < 50 | CS(=O)(=O)N1CCN(S(=O)(=O)c2cc(F)c(Oc3ccc(Cl)cc3)c(F)c2)[C@@H](C(=O)NO)C1 [Entry 28]
50 to 1000 | 50 to 1000 | < 50 | < 50 | O=C(NO)[C@H]1CN(S(=O)(=O)CCN2CCCCC2)CCN1S(=O)(=O)c1cc(F)c(Oc2ccc(Cl)cc2)c(F)c1 [Entry 53]
1000 to 20000 | 50 to 1000 | < 50 | < 50 | CCOC(=O)N1CCN(S(=O)(=O)c2cc(F)c(Oc3ccc(F)cc3)c(F)c2)[C@@H](C(=O)NO)C1 [Entry 13]
> 20000 | 1000 to 20000 | < 50 | < 50 | CN1CCN(C(=O)N2CCN(S(=O)(=O)c3cc(F)c(Oc4ccc(Cl)cc4)c(F)c3)[C@@H](C(=O)NO)C2)CC1 [Entry 16]
< 50 | < 50 | < 50 | < 50 | COCCOC(=O)N1CCN(S(=O)(=O)c2ccc(Oc3ccc(F)cc3)nc2)[C@@H](C(=O)NO)C1 [Entry 65]
1000 to 20000 | 50 to 1000 | < 50 | < 50 | CN1CCC(OC(=O)N2CCN(S(=O)(=O)c3cc(F)c(Oc4ccc(Cl)cc4)c(F)c3)[C@@H](C(=O)NO)C2)CC1 [Entry 22]
> 20000 | 1000 to 20000 | < 50 | < 50 | CCOC(=O)N1CCN(CC(=O)N2CCN(S(=O)(=O)c3cc(F)c(Oc4ccc(Cl)cc4)c(F)c3)[C@@H](C(=O)NO)C2)CC1 [Entry 23]
1000 to 20000 | 1000 to 20000 | 1000 to 20000 | < 50 | CC(C)(C)OC(=O)N1CCN(S(=O)(=O)c2cc(F)c(Oc3ccc(F)cc3)c(F)c2)[C@@H](C(=O)NO)C1 [Entry 9]
1000 to 20000 | 50 to 1000 | < 50 | < 50 | COCCN1CCN(S(=O)(=O)c2cc(F)c(Oc3ccc(Cl)cc3)c(F)c2)[C@@H](C(=O)NO)C1 [Entry 29]
50 to 1000 | 1000 to 20000 | < 50 | < 50 | COCCOC(=O)N1CCN(S(=O)(=O)c2ccc(Oc3ccc(F)cc3)c(F)c2)[C@@H](C(=O)NO)C1 [Entry 3]
1000 to 20000 | 50 to 1000 | < 50 | < 50 | CCOC(=O)N1CCN(CCS(=O)(=O)N2CCN(S(=O)(=O)c3cc(F)c(Oc4ccc(Cl)cc4)c(F)c3)[C@@H](C(=O)NO)C2)CC1 [Entry 56]
1000 to 20000 | 50 to 1000 | < 50 | < 50 | O=C(CN1CCOCC1)NC(=O)N1CCN(S(=O)(=O)c2cc(F)c(Oc3ccc(Cl)cc3)c(F)c2)[C@@H](C(=O)NO)C1 [Entry 46]
1000 to 20000 | 50 to 1000 | < 50 | < 50 | O=C(NO)[C@H]1CN(C(=O)NCCN2CCCC2)CCN1S(=O)(=O)c1cc(F)c(Oc2ccc(Cl)cc2)c(F)c1 [Entry 17]
50 to 1000 | < 50 | < 50 | < 50 | COCCOC(=O)N1CCN(S(=O)(=O)c2ccc(Oc3ccc4c(c3)CCCC4)nc2)[C@@H](C(=O)NO)C1 [Entry 64]
< 50 | < 50 | < 50 | < 50 | O=C(NO)[C@H]1CN(C(=O)N2CCOCC2)CCN1S(=O)(=O)c1ccc(Oc2ccc(F)cc2)cc1 [Entry 2]
> 20000 | 1000 to 20000 | 50 to 1000 | 50 to 1000 | O=C(O)CN1CCN(S(=O)(=O)c2cc(F)c(Oc3ccc(Cl)cc3)c(F)c2)[C@@H](C(=O)NO)C1 [Entry 63]
